# Source: US10138238B2, “Pesticidally active polycyclic derivatives with sulfur containing substituents” (Syngenta Participations AG, priority 2015, dated 2018)
# Tests used:
# Format in all cases: in vivo
# [1] = system: Plutella xylostella (Diamond Back Moth); test: Example B6: Plutella xylostella, artificial diet, L2 larvae; details: 120 h, application rate of 200 ppm, 5 days after infestation, read-out: effect in at least one of the two categories (mortality or growth inhibition)
# Procedure: (§1) 24-well microtiter plates with artificial diet were treated with aqueous test solutions prepared from 10'000 ppm DMSO stock solutions by pipetting. After drying, the plates were infested with L2 larvae (10 to 15 per well). The samples were assessed for mortality and growth inhibition in comparison to untreated samples 5 days after infestation. The following compounds gave an effect of at least 80% in at least one of the two categories (mortality or growth inhibition) at an application rate of 200 ppm: P1, P2, P3, P4, P6, P8, P9, P10, P11, P12, P13, P14 and P15.
# [2] = system: Diabrotica balteata (Corn Root Worm); test: Example B13: Breakpoint (BP80) against Diabrotica balteata; details: lowest concentration which gives 80% larval mortality; larval feeding/contact
# Procedure: (§2) Maize sprouts placed onto an agar layer in 24-well microtiter plates were treated with aqueous test solutions prepared from 10'000 ppm DMSO stock solutions by spraying. After drying, the plates were infested with L2 larvae (6 to 10 per well). The samples were assessed for mortality and growth inhibition in comparison to untreated samples 4 days after infestation. The following compounds gave an effect of at least 80% in at least one of the two categories (mortality or growth inhibition) at an application rate of 200 ppm: P1, P2, P3, P4, P5, P6, P7, P8, P9, P10, P11, P12, P13, P14, and P15.
# (§3) Insecticidal action against Diabrotica balteata (Corn root worm), Plutella xylostella (Diamond black moth), and Spodoptera littoralis (Egyptian cotton leaf worm). The tests were carried out as described in biological examples B2, B6 and B7, respectively, with the larval feeding/contact activity being reported as Breakpoint (BP80) values in parts per million (i.e. the lowest concentration which gives 80% larval mortality).
# [3] = system: Spodoptera littoralis (Egyptian Cotton Leaf Worm); test: Example B7: Spodoptera littoralis, cotton leaf discs, L1 larvae; details: foliar, 72 h, application rate of 200 ppm, 3 days after infestation
# Procedure: (§4) Cotton leaf discs were placed onto agar in 24-well microtiter plates and sprayed with aqueous test solutions prepared from 10'000 ppm DMSO stock solutions. After drying the leaf discs were infested with five L1 larvae. The samples were assessed for mortality, anti-feeding effect, and growth inhibition in comparison to untreated samples 3 days after infestation. Control of Spodoptera littoralis by a test sample is given when at least one of the categories mortality, anti-feedant effect, and growth inhibition is higher than the untreated sample.
# [4] = system: Diabrotica balteata (Corn Root Worm); test: Example B2: Diabrotica balteata, maize sprouts, L2 larvae; details: 96 h, application rate of 200 ppm, 4 days after infestation, read-out: effect in at least one of the two categories (mortality or growth inhibition)
# Procedure: as §2
# [5] = system: Spodoptera littoralis (Egyptian Cotton Leaf Worm); test: Example B13: Breakpoint (BP80) against Spodoptera littoralis; details: lowest concentration which gives 80% larval mortality; larval feeding/contact
# Procedure: as §4, §3
# [6] = system: Euschistus heros (Neotropical Brown Stink Bug); test: Example B3: Euschistus heros, soybean leaves, N2 nymphs; details: 120 h, application rate of 200 ppm, 5 days after infestation, read-out: effect in at least one of the two categories (mortality or growth inhibition)
# Procedure: Soybean leaves on agar in 24-well microtiter plates were sprayed with aqueous test solutions prepared from 10'000 ppm DMSO stock solutions. After drying the leaves were infested with N2 nymphs. The samples were assessed for mortality and growth inhibition in comparison to untreated samples 5 days after infestation. The following compounds gave an effect of at least 80% in at least one of the two categories (mortality or growth inhibition) at an application rate of 200 ppm: • P1, P3, P8, P9, P10, P13, P14, and P15
# [7] = system: Plutella xylostella (Diamond black moth); test: Example B13: Breakpoint (BP80) against Plutella xylostella; details: lowest concentration which gives 80% larval mortality; larval feeding/contact
# Procedure: as §1, §3
# [8] = system: Thrips tabaci (Onion Thrips); test: Example B10: Thrips tabaci feeding/contact activity; details: 144 h, application rate of 200 ppm, 6 days after infestation
# Procedure: (§5) Sunflower leaf discs were placed on agar in 24-well microtiter plates and sprayed with aqueous test solutions prepared from 10'000 ppm DMSO stock solutions. After drying the leaf discs were infested with a thrips population of mixed ages. The samples were assessed for mortality 6 days after infestation.
# [9] = system: Tetranychus urticae (Two-Spotted Spider Mite); test: Example B9: Tetranychus urticae feeding/contact activity; details: 192 h
# Procedure: as §5, with “Bean” for “Sunflower”, “discs” for “discs were placed”, “were” for “and”, “mite” for “thrips”, “on mixed population (mobile stages) 8” for “6”
# [10] = system: Spodoptera littoralis (Egyptian Cotton Leaf Worm); test: Example B8: Spodoptera littoralis systemic activity; details: 144 h, test rate of 12.5 ppm, lettuce, 6 days after infestation, read-out: effect in at least one of the three categories (mortality, anti-feeding, or growth inhibition)
# Description: Test compounds were applied by pipette from 10'000 ppm DMSO stock solutions into 24-well plates and mixed with agar. Lettuce seeds were placed onto the agar and the multi well plate was closed by another plate which contained also agar. After 7 days the compound was absorbed by the roots and the lettuce grew into the lid plate. The lettuce leaves were then cut off into the lid plate. Spodoptera eggs were pipetted through a plastic stencil onto a humid gel blotting paper and the lid plate was closed with it. The samples were assessed for mortality, anti-feedant effect and growth inhibition in comparison to untreated samples 6 days after infestation. The following compounds gave an effect of at least 80% in at least one of the three categories (mortality, anti-feeding, or growth inhibition) at a test rate of 12.5 ppm: • P10, P13, P14 and P15.
# [11] = system: Myzus persicae (Green Peach Aphid); test: Example B5: Myzus persicae systemic activity; details: 144 h, test rate of 24 ppm, pea seedling roots, 6 days
# Procedure: Roots of pea seedlings infested with an aphid population of mixed ages were placed directly into aqueous test solutions prepared from 10'000 DMSO stock solutions. The samples were assessed for mortality 6 days after placing seedlings into test solutions.
# [12] = system: Myzus persicae (Green Peach Aphid); test: Example B4: Myzus persicae feeding/contact activity; details: 144 h, application rate of 200 ppm, 6 days after infestation
# Procedure: Sunflower leaf discs were placed onto agar in a 24-well microtiter plate and sprayed with aqueous test solutions prepared from 10'000 ppm DMSO stock solutions. After drying, the leaf discs were infested with an aphid population of mixed ages. The samples were assessed for mortality 6 days after infestation.
SMILES,percent effect (mortality or growth inhibition) at 200 ppm [1],BP80 Values Diabrotica balteata [2],"percent control (mortality, anti-feedant effect or growth inhibition) at 200 ppm [3]",percent effect (mortality or growth inhibition) at 200 ppm [4],BP80 Values Spodoptera littoralis [5],percent effect (mortality or growth inhibition) at 200 ppm [6],BP80 Values Plutella xylostella [7],mortality at 200 ppm [8],mortality at 200 ppm [9],"percent effect (mortality, anti-feeding or growth inhibition) at 12.5 ppm [10]",mortality at 24 ppm [11],mortality at 200 ppm [12]
"CCS(=O)(=O)c1ccc(-n2ccc(C(F)(F)F)n2)nc1-c1nc2cc(C(F)(F)F)ncc2n1C [Compound P3, 2-[3-ethylsulfonyl-6-[3-(trifluoromethyl)pyrazol-1-yl]-2-pyridyl]-3-methyl-6-(trifluoromethyl)imidazo[4,5-c]pyridine]",≥ 80%,0.8 ppm,≥ 80%,≥ 80%,0.8 ppm,≥ 80%,12 ppm,≥ 80%,,,,
"CCS(=O)(=O)c1ccc(-c2ncccn2)nc1-c1nc2cc(SC(F)(F)F)ncc2n1C [Compound P10, 2-(3-ethylsulfonyl-6-pyrimidin-2-yl-2-pyridyl)-3-methyl-6-(trifluoromethylsulfanyl)imidazo[4,5-c]pyridine]",≥ 80%,,≥ 80%,≥ 80%,,≥ 80%,,≥ 80%,≥ 80%,≥ 80%,≥ 80%,≥ 80%
